Values quoted from earlier work as cited in US20090099557A1, “Methods and compositions for optimizing the outcomes of refractive laser surgery of the cornea” (priority 2006, published 2009).

Tests used:
epithelial cells [1] = conditions: 18% ethanol for 25 seconds; single cell layers of epithelial cells, in vitro
epithelial cells [2] = conditions: ethanol-assisted epithelial separation; Invest Opthalmol Vis Sci 43: 2593-2602 (2002); J Cataract Refract Surg 28: 1841-46 (2002)

CCO [ethanol]
toxic effect of the alcohol on epithelial cells (epithelial cells [1]): toxic effect | toxicity to epithelial cells (epithelial cells [2]): toxic to epithelial cells in both a dose- and time-dependent manner
